The record followed here is US20260167829A1, “USES OF DIAZIRINES” (Nanyang Technological University, priority 2022, published 2026).

“Also recorded” adds a separate entry of the source.

Data set [1] in a line: UV/VIS spectroscopy, molar absorption. The class given is physicochemical. The protocol: The solution is then added to UV/VIS quartz tube with a path length of 1 cm. The background is normalized to chloroform. The samples are tested in the wavelength range of 200 to 800 nm at a medium scan rate of 2 nm, and a slit width of 0.5 nm. Data are collected in absorbance values (A) against wavelength (nm).

Data set [2] has as its system 3T3 fibroblasts or HeLa cell lines. Put plainly: In vitro biocompatibility Alamar Blue assay. The format is cell-based. To be noted: 48 hours of incubation; all concentrations (0.01-1 mM). The procedure:
Cells seeded in wells (5 replicates for each group) with 100 μl DMEM media (10% FBS, 1% antibiotic). Incubated for 24 and 48 h, in a 96-well plate, 10000 cells/well, using 3T3 fibroblasts or HeLa cell lines. After 24 h, DMEM media replaced with 100 μl DMEM with dissolved test compounds (Test compounds dissolved in DMEM media to obtain final conc. of 1, 0.5, 0.1, 0.01 mM). After 24 hours of incubation, 10 μl resazurin solution (0.015%) dissolved in PBS was added to the wells followed by incubation for 3 hours. Readings taken post 24 hours and 48 hours of sample addition. (Ex-570 nm, Em-590 nm), Controls: Blank media without cells, Media with cells, Readings for (Blank media without cells) subtracted from all groups, Readings normalized against (media with cells group—100%)
A general note: Resazurin is reduced to fluorescent resorufin, in cell work by metabolically active cells.

Data set [3] is described as follows: Photorheometry of CaproGlu binary formulations (365 nm UVA, 10 J·cm^−2). The class given is physicochemical. To be noted: neat component of Table 3; steady state viscosity, shear rate 10 sec^−1. The procedure: Rheometry was carried out on an Anton Paar MCR 102 rheometer (Anton Paar, Singapore) with a custom photocuring setup as described previously (Djordjevic, I. et al., Biomaterials 2020, 260, 120215). A PP10 parallel plate stainless steel probe was used, with a 0.2 mm measuring gap. Steady State Viscosity was measured first (shear rate 10 sec^−1), followed by a dynamic oscillatory strain measurement during photocuring (UV ON at 30 seconds, off at 2 minutes 10 seconds, 1% shear, frequency 10 Hz, amplitude 1%), then an Amplitude Sweep (shear 1-1000-%, angular frequency 10 rad-sec^−1). In reporting of G′ and G″, a smoothing function was applied. The UV lamp used was a Thor Labs 365 nm SOLIS High-Power LED connected to a DC2200 LED Driver set to constant current mode. […]
Covalent crosslinking was monitored via complex shear modulus (G*), which was measured on a custom photorheometer fitted with a narrow-band 365 nm UV diode and normal-force load cell. […] Dynamic viscosity, G′ (storage modulus), G″ (loss modulus), and normal force (caused by expansion/contraction of polymer matrix) were continually monitored and subsequently analysed for yield stress/strain with an amplitude sweep. Functional groups were qualitatively assessed before and after curing via ATR-FTIR spectroscopy to observe consumption. […]

Data set [4] in a line: Stability of PEGDA/PTHT mixtures with photoinitiator under indoor light. The format is physicochemical. To be noted: PEGDA+PTHT 2:1 binary mixture, 1 mol % initiator, no solvent. The procedure: Polyethylene glycol diacrylate (Mw˜575 Da), referred to as “PEGDA” further in text is used in all the experiments. PEGDA/PTHT samples are prepared by magnetic stirring of PEGDA and PTHT polymer blend (2:1 molar ratio) with diazirine photoinitiators (1 mol % DzOH or 1 mol % CG relative to the total number of mols of PEGDA in each sample). Samples with standard TPO photoinitiator (1 mol %) are used as controls. The mixing of compounds (PEGDA+PTHT) in binary mixture with photoinitiators (DzOH, CG and TPO) is completed without any solvent.

Take `O=C(O)c1ccc(C2(C(F)(F)F)N=N2)cc1` [DzCOOH, 4-[3-(Trifluoromethyl)-3H-diazirin-3-yl]benzoic acid]: the “absorbance above 400 nm” value in data set [1] (previous UV-Vis studies) was “does not have an absorbance above 400 nm”.

Turning to `OCc1ccc(C2(C(F)(F)F)N=N2)cc1` [DzOH, 4-[3-(Trifluoromethyl)-3H-diazirin-3-yl]benzyl alcohol], in data set [2], the Cell viability result is recorded as “not significantly different from control”.

Consider `O=C(CCS)OCC(COC(=O)CCS)(COC(=O)CCS)COC(=O)CCS` [PTHT, pentaerythritol tetrakis 3-mercaptopropionate], for which the viscosity entry in data set [3] was “[drawing 17] PTHT, Mw = 488.66 g · mol^-1, viscosity = 667 ± 49 mPa · s mPa·s”.

Take `Cc1cc(C)c(C(=O)P(=O)(c2ccccc2)c2ccccc2)c(C)c1` [TPO, Diphenyl(2,4,6-trimethylbenzoyl)phosphine oxide]: the “stability under indoor lighting” value in data set [4] is “activated under indoor light; also recorded: unstable and prematurely crosslinked under fluorescent lights and white LED emitters”. In data set [1] (@ 381 nm), this compound registered a molar absorption coefficient of 520 cm^−1M^−1.
